The values below come from patent US11173151B2, “Substituted triazole derivatives and uses thereof” (BAYER AKTIENGESELLSCHAFT, priority 2017, dated 2021).

In one assay the target is T1, human V1a receptor (Homo sapiens, UniProt P37288).
T1 construct: expressed in transfected cells; host or cells: CHO K1 (ATCC), also stably transfected with a modified aequorin
Put plainly: Cellular in vitro assay for determining vasopressin receptor activity, V1a receptor cell line (CHO, aequorin luminescence). The settings on record: for IC50: CHO cell line transfected with human V1a receptor, [Arg]-vasopressin at EC50 concentration, read-out: IC50 hV1a; for ratio IC50 hV2/hV1a: selectivity ratio IC50 hV2 / IC50 hV1a. The class given is cell-based. An outline of the steps:
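Cells were plated the day before in medium containing 5 μg/ml coelenterazine and kept at 37° C. Compounds at various concentrations were then added for 10 minutes. Next, [Arg]-vasopressin at EC50 was applied and light output recorded at once, yielding IC50.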

The target of the next assay is T2, human V2 receptor (Homo sapiens, UniProt P30518).
T2 construct: expressed in transfected cells; host or cells: CHO K1 (ATCC) expressing firefly luciferase under a CRE-responsive promoter
T2 sequence (P30518 whole entry): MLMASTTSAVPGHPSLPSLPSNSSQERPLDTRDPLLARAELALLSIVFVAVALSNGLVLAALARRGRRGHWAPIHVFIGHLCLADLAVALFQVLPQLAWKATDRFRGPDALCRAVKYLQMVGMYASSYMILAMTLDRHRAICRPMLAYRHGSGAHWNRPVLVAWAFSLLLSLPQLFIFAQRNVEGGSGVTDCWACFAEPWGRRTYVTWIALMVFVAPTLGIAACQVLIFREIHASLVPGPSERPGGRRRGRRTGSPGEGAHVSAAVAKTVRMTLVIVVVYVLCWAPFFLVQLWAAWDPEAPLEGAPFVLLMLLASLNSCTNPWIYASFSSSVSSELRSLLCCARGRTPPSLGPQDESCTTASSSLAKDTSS
Put plainly: Cellular in vitro assay for determining vasopressin receptor activity, V2 receptor cell line (CHO, CRE-luciferase). The class given is cell-based. The settings on record: CHO cell line transfected with human V2 receptor; [Arg8]-vasopressin at EC50 concentration; read-out: IC50 hV2.

Molecules are shown by their SMILES.

T1 sequence (P37288 whole entry): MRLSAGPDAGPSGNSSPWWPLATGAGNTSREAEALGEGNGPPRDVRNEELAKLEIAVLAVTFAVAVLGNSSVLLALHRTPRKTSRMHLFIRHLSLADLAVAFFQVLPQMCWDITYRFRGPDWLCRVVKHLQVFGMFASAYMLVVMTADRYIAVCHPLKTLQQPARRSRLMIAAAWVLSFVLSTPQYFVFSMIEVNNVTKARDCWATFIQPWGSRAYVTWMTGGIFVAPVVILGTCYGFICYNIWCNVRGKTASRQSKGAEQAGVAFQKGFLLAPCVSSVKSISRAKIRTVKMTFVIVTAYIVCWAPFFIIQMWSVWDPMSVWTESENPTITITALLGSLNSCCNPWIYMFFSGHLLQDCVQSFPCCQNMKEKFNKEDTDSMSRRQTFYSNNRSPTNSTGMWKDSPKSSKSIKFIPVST

Usually IC50 stands for the concentration that gives 50% inhibition. As for `O=C(NCC(O)C(F)(F)F)c1ncccc1-n1cnc(Cn2nc(-c3ccc(Cl)cc3)n(C[C@H](O)C(F)(F)F)c2=O)n1` (mixture of isomers) [Example 430, 3-[3-({3-(4-Chlorophenyl)-5-oxo-4-[(2S)-3,3,3-trifluoro-2-hydroxypropyl]-4,5-dihydro-1H-1,2,4-triazol-1-yl}methyl)-1H-1,2,4-triazol-1-yl]-N-[3,3,3-trifluoro-2-hydroxypropyl]pyridine-2-carboxamide], the half-inhibitory concentration (IC50) at human V1a receptor worked out at 44.5 nM; on human V2 receptor, 710 nM. For the same molecule, the “ratio IC50 hV2/hV1a” value at human V1a receptor is 16.0.
On the same counts, the results for `O=C(NC1CC1(F)F)c1ncccc1-n1cnc(Cn2nc(-c3ccc(Cl)cc3)n(C[C@H](O)C(F)(F)F)c2=O)n1` (mixture of isomers) [Example 436, 3-[3-({3-(4-Chlorophenyl)-5-oxo-4-[(2S)-3,3,3-trifluoro-2-hydroxypropyl]-4,5-dihydro-1H-1,2,4-triazol-1-yl}methyl)-1H-1,2,4-triazol-1-yl]-N-[2,2-difluorocyclopropyl]pyridine-2-carboxamide] are 25 nM, 825 nM and 33.0.
For the molecule `CC1CN(C(=O)c2ncccc2-n2cnc(Cn3nc(-c4ccc(Cl)cc4)n(C[C@H](O)C(F)(F)F)c3=O)n2)CCO1` (mixture of isomers) [Example 440, 5-(4-Chlorophenyl)-2-{[1-(2-{[2-methylmorpholin-4-yl]carbonyl}pyridin-3-yl)-1H-1,2,4-triazol-3-yl]methyl}-4-[(2S)-3,3,3-trifluoro-2-hydroxypropyl]-2,4-dihydro-3H-1,2,4-triazol-3-one], the results for the IC50 on human V1a receptor and on human V2 receptor were 100 nM and 4550 nM, respectively. In addition, the “ratio IC50 hV2/hV1a” value at human V1a receptor turned out to be 45.5.
As for `NC(=O)C1CCCN1C(=O)c1ncccc1-n1cnc(Cn2nc(-c3ccc(Cl)cc3)n(C[C@H](O)C(F)(F)F)c2=O)n1` (mixture of isomers) [Example 441, 1-({3-[3-({3-(4-Chlorophenyl)-5-oxo-4-[(2S)-3,3,3-trifluoro-2-hydroxypropyl]-4,5-dihydro-1H-1,2,4-triazol-1-yl}methyl)-1H-1,2,4-triazol-1-yl]pyridin-2-yl}carbonyl)-prolinamide], the figures for the concentration for half-maximal inhibition (IC50) on human V1a receptor and at human V2 receptor were 175 nM and 6050 nM, respectively. The “ratio IC50 hV2/hV1a” value at human V1a receptor worked out at 34.6.
As to `O=C(c1ncccc1-n1cnc(Cn2nc(-c3ccc(Cl)cc3)n(C[C@H](O)C(F)(F)F)c2=O)n1)N1CCC(O)(C(F)(F)F)C1` (mixture of isomers) [Example 442, 5-(4-Chlorophenyl)-2-{[1-(2-{[3-hydroxy-3-(trifluoromethyl)pyrrolidin-1-yl]carbonyl}pyridin-3-yl)-1H-1,2,4-triazol-3-yl]methyl}-4-[(2S)-3,3,3-trifluoro-2-hydroxypropyl]-2,4-dihydro-3H-1,2,4-triazol-3-one], on human V1a receptor, the concentration for half-maximal inhibition (IC50) stood at 190 nM and the “ratio IC50 hV2/hV1a” value is 24.5. Besides, the IC50 on human V2 receptor came to 4650 nM.
In the same order, the values of `O=C(c1ncccc1-n1cnc(Cn2nc(-c3ccc(Cl)cc3)n(C[C@H](O)C(F)(F)F)c2=O)n1)N1CCOC(C(F)(F)F)C1` (mixture of isomers) [Example 444, 5-(4-Chlorophenyl)-4-[(2S)-3,3,3-trifluoro-2-hydroxypropyl]-2-{[1-(2-{[2-(trifluoromethyl)morpholin-4-yl]carbonyl}pyridin-3-yl)-1H-1,2,4-triazol-3-yl]methyl}-2,4-dihydro-3H-1,2,4-triazol-3-one] are 120 nM, 65.4 and 7850 nM.
In the same order, the values of `O=C(c1ncccc1-n1cnc(Cn2nc(-c3ccc(Cl)cc3)n(C[C@H](O)C(F)(F)F)c2=O)n1)N1CCNC(C(F)(F)F)C1` (mixture of isomers) [Example 448, 5-(4-Chlorophenyl)-4-[(2S)-3,3,3-trifluoro-2-hydroxypropyl]-2-{[1-(2-{[3-(trifluoromethyl)piperazin-1-yl]carbonyl}pyridin-3-yl)-1H-1,2,4-triazol-3-yl]methyl}-2,4-dihydro-3H-1,2,4-triazol-3-one] are 165 nM, 16.4 and 2700 nM.
With `O=C(c1ncccc1-n1cnc(Cn2nc(-c3ccc(Cl)cc3)n(C[C@H](O)C(F)(F)F)c2=O)n1)N1CCC(C(F)(F)F)C1` (mixture of isomers) [Example 449, 5-(4-Chlorophenyl)-4-[(2S)-3,3,3-trifluoro-2-hydroxypropyl]-2-{[1-(2-{[3-(trifluoromethyl)pyrrolidin-1-yl]carbonyl}pyridin-3-yl)-1H-1,2,4-triazol-3-yl]methyl}-2,4-dihydro-3H-1,2,4-triazol-3-one], on human V1a receptor, the IC50 stood at 200 nM and the “ratio IC50 hV2/hV1a” value amounted to 16.8. In addition, the IC50 at human V2 receptor worked out at 3350 nM.
Turning to `NC(=O)C1CCCN1C(=O)c1ncccc1-n1cnc(Cn2nc(-c3ccc(Cl)cc3)n(C[C@@H](O)C(F)(F)F)c2=O)n1` (mixture of isomers) [Example 467, 1-({3-[3-({3-(4-chlorophenyl)-5-oxo-4-[(2R)-3,3,3-trifluoro-2-hydroxypropyl]-4,5-dihydro-1H-1,2,4-triazol-1-yl}methyl)-1H-1,2,4-triazol-1-yl]pyridin-2-yl}carbonyl)-prolinamide], on human V1a receptor, the IC50 worked out at 620 nM and the “ratio IC50 hV2/hV1a” value was 51.6. The IC50 on human V2 receptor turned out to be 32000 nM.
In the same order, the values of `O=C(c1ncccc1-n1cnc(Cn2nc(-c3ccc(Cl)cc3)n(C[C@@H](O)C(F)(F)F)c2=O)n1)N1CCC(C(F)(F)F)C1` (mixture of isomers) [Example 480, 5-(4-Chlorophenyl)-4-[(2R)-3,3,3-trifluoro-2-hydroxypropyl]-2-{[1-(2-{[3-(trifluoromethyl)pyrrolidin-1-yl]carbonyl}pyridin-3-yl)-1H-1,2,4-triazol-3-yl]methyl}-2,4-dihydro-3H-1,2,4-triazol-3-one] are 460 nM, 69.6 and 32000 nM.
On the same counts, the results for `NC(CNC(=O)c1ncccc1-n1cnc(Cn2nc(-c3ccc(Cl)cc3)n(C[C@@H](O)C(F)(F)F)c2=O)n1)C(F)(F)F` (mixture of isomers) [Example 484, N-[2-Amino-3,3,3-trifluoropropyl]-3-[3-({3-(4-chlorophenyl)-5-oxo-4-[(2R)-3,3,3-trifluoro-2-hydroxypropyl]-4,5-dihydro-1H-1,2,4-triazol-1-yl}methyl)-1H-1,2,4-triazol-1-yl]pyridine-2-carboxamide] are 210 nM, 44.8 and 9400 nM.
In the case of `O=C(NCC(O)C(F)(F)F)c1ncccc1-n1cnc(Cn2nc(-c3ccc(Cl)cc3)n(C[C@@H](O)C(F)(F)F)c2=O)n1` (mixture of isomers) [Example 485, 3-[3-({3-(4-Chlorophenyl)-5-oxo-4-[(2R)-3,3,3-trifluoro-2-hydroxypropyl]-4,5-dihydro-1H-1,2,4-triazol-1-yl}methyl)-1H-1,2,4-triazol-1-yl]-N-[3,3,3-trifluoro-2-hydroxypropyl]pyridine-2-carboxamide], the results for the IC50 on human V1a receptor and at human V2 receptor were 230 nM and 5000 nM, respectively. The “ratio IC50 hV2/hV1a” value at human V1a receptor is 21.7.
For the molecule `COCC1CCCN1C(=O)c1ccncc1-n1cnc(Cn2nc(-c3ccc(Cl)cc3)n(C[C@H](O)C(F)(F)F)c2=O)n1` (mixture of isomers) [Example 493, 5-(4-Chlorophenyl)-2-{[1-(4-{[2-(methoxymethyl)pyrrolidin-1-yl]carbonyl}pyridin-3-yl)-1H-1,2,4-triazol-3-yl]methyl}-4-[(2S)-3,3,3-trifluoro-2-hydroxypropyl]-2,4-dihydro-3H-1,2,4-triazol-3-one], the results for the IC50 on human V1a receptor and on human V2 receptor were 13.5 nM and 7300 nM, respectively. For the same molecule, the “ratio IC50 hV2/hV1a” value on human V1a receptor came to 540.7.
As for `O=C(NC1CC1F)c1cccnc1-n1cnc(Cn2nc(-c3ccc(Cl)cc3)n(C[C@H](O)C(F)(F)F)c2=O)n1` (mixture of isomers) [Example 503], at human V1a receptor, the IC50 came out at 5.55 nM and the “ratio IC50 hV2/hV1a” value is on record as 38.7. In addition, the 50% inhibitory concentration (IC50) on human V2 receptor came to 215 nM.
Regarding `COCC1CCCN1C(=O)c1ccncc1-n1nc(Cn2nc(-c3ccc(Cl)cc3)n(C[C@H](O)C(F)(F)F)c2=O)nc1C(=O)N1CCNC(=O)C1` (mixture of isomers) [Example 516, 4-{[3-({3-(4-Chlorophenyl)-5-oxo-4-[(2S)-3,3,3-trifluoro-2-hydroxypropyl]-4,5-dihydro-1H-1,2,4-triazol-1-yl}methyl)-1-(4-{[2-(methoxymethyl)pyrrolidin-1-yl]carbonyl}pyridin-3-yl)-1H-1,2,4-triazol-5-yl]carbonyl}piperazin-2-one], at human V1a receptor, the IC50 was found to be 5700 nM and the “ratio IC50 hV2/hV1a” value is 9.6. Moreover, the IC50 on human V2 receptor turned out to be 55000 nM.
Regarding `COCC1CCCN1C(=O)c1ccncc1-n1nc(Cn2nc(-c3ccc(Cl)cc3)n(C[C@H](O)C(F)(F)F)c2=O)nc1C(=O)N1CCS(=O)(=O)CC1` (mixture of isomers) [Example 522, 5-(4-Chlorophenyl)-2-({5-[(1,1-dioxidothiomorpholin-4-yl)carbonyl]-1-(4-{[2-(methoxymethyl)pyrrolidin-1-yl]carbonyl}pyridin-3-yl)-1H-1,2,4-triazol-3-yl}methyl)-4-[(2S)-3,3,3-trifluoro-2-hydroxypropyl]-2,4-dihydro-3H-1,2,4-triazol-3-one], the half-maximal inhibitory concentration (IC50) at human V1a receptor came out at 3000 nM; on human V2 receptor, 15000 nM. On human V1a receptor, the “ratio IC50 hV2/hV1a” value came to 5.0.
